Assay results taken from ChEMBL document CHEMBL1268922, “Xiamycin, a pentacyclic indolosesquiterpene with selective anti-HIV activity from a bacterial mangrove endophyte” (Bioorg Med Chem Lett, 2010).
≈ marks a conversion by molar mass, not a printed value. Calls of active or inactive are those of the source. No cut-off for these calls is given here.

How the values were obtained:
[1] = test system: Staphylococcus aureus; experiment: Antimicrobial activity against Staphylococcus aureus 134/94 R9 at 50 ug after 24 hrs by paper disk method; format: functional; details: 134/94 R9, 24 h, read-out: IZ
[2] = test system: HT-29; experiment: Antitumor activity against human HT-29 by modified propidium iodide assay; format: functional, cell-based
[3] = test system: Bacillus subtilis; experiment: Antimicrobial activity against Bacillus subtilis ATCC 6633 at 50 ug after 24 hrs by paper disk method; format: functional; details: ATCC 6633, 24 h, read-out: IZ
[4] = test system: Human immunodeficiency virus 1; experiment: Inhibition of HIV1 NL4-3 replication in CD4-CCR5 expressing human TZM-bl cells assessed as decrease in p24 antigen production; format: functional, organism-based
[5] = test system: L929; experiment: Antiproliferative activity against mouse L929 cells; format: functional
[6] = test system: Pseudomonas aeruginosa; experiment: Antimicrobial activity against Pseudomonas aeruginosa K799/61 at 50 ug after 24 hrs by paper disk method; format: functional; details: K799/61, 24 h, read-out: IZ
[7] = test system: Staphylococcus aureus; experiment: Antimicrobial activity against Staphylococcus aureus SG 511 at 50 ug after 24 hrs by paper disk method; format: functional; details: SG 511, 24 h, read-out: IZ
[8] = Antitumor activity against human PAXF 1657L by modified propidium iodide assay; format: functional
[9] = test system: CWR22R; experiment: Antitumor activity against human 22Rv1 by modified propidium iodide assay; format: functional, cell-based
[10] = Antitumor activity against human RXF 486L by modified propidium iodide assay; format: functional
[11] = test system: Penicillium chrysogenum; experiment: Antimicrobial activity against Penicillium notatum JP36 at 50 ug after 24 hrs by paper disk method; format: functional, organism-based
[12] = Antitumor activity against human LXFA 629L by modified propidium iodide assay; format: functional
[13] = Antitumor activity against human MEXF 462NL by modified propidium iodide assay; format: functional
[14] = Antitumor activity against human MAXF 401NL by modified propidium iodide assay; format: functional
[15] = test system: K562; experiment: Antiproliferative activity against human K562 cells; format: functional
[16] = test system: Escherichia coli; experiment: Antimicrobial activity against Escherichia coli SG458 at 50 ug after 24 hrs by paper disk method; format: functional, organism-based
[17] = test system: Enterococcus faecalis; experiment: Antimicrobial activity against Enterococcus faecalis 1528 R10 at 50 ug after 24 hrs by paper disk method; format: functional; details: 1528 R10, 24 h, read-out: IZ
[18] = test system: Sporobolomyces salmonicolor; experiment: Antimicrobial activity against Sporobolomyces salmonicolor SBUG 549 at 50 ug after 24 hrs by paper disk method; format: functional, organism-based
[19] = Antitumor activity against human OVXF 899L by modified propidium iodide assay; format: functional
[20] = test system: Pseudomonas aeruginosa; experiment: Antimicrobial activity against Pseudomonas aeruginosa SG137/B7 at 50 ug after 24 hrs by paper disk method; format: functional, organism-based
[21] = test system: Candida albicans; experiment: Antimicrobial activity against Candida albicans at 50 ug after 24 hrs by paper disk method; format: functional, organism-based
[22] = test system: Mycolicibacterium vaccae; experiment: Antimicrobial activity against Mycobacterium vaccae IMET 10670 at 50 ug after 24 hrs by paper disk method; format: functional; details: IMET 10670, 24 h, read-out: IZ
[23] = test system: Human immunodeficiency virus 1; experiment: Inhibition of HIV1 NL4-3 replication in CD4-CXCR4 expressing human TZM-bl cells assessed as decrease in p24 antigen production; format: functional, organism-based
[24] = Antitumor activity against human LXFL 529L by modified propidium iodide assay; format: functional
[25] = Antitumor activity against human UXF 1138L by modified propidium iodide assay; format: functional
[26] = test system: HeLa; experiment: Antiproliferative activity against human HeLa cells; format: functional
[27] = Antitumor activity against human PXF 1752L by modified propidium iodide assay; format: functional
[28] = Antitumor activity against human GXF251L by modified propidium iodide assay; format: functional

| IC50 [2] [µM] | IC50 [8] [µM] | IC50 [9] [µM] | IC50 [10] [µM] | IC50 [12] [µM] | IC50 [13] [µM] | IC50 [14] [µM] | IC50 [19] [µM] | IC50 [24] [µM] | SMILES | zone of inhibition at 50 µg/disc [1] [mm] | zone of inhibition at 50 µg/disc [3] [mm] | zone of inhibition at 50 µg/disc [6] [mm] | zone of inhibition at 50 µg/disc [7] [mm] | Activity [11] | Activity [16] | zone of inhibition at 50 µg/disc [17] [mm] | Activity [18] | Activity [20] | Activity [21] | zone of inhibition at 50 µg/disc [22] [mm] | further results |
| --- | --- | --- | --- | --- | --- | --- | --- | --- | --- | --- | --- | --- | --- | --- | --- | --- | --- | --- | --- | --- | --- |
| > 30 | > 30 | > 30 | > 30 | > 30 | > 30 | > 30 | > 30 | > 30 | C[C@@]1(C(=O)O)[C@@H](O)CC[C@]2(C)c3cc4c(cc3CC[C@@H]12)[nH]c1ccccc14 [XIAMYCIN] | 14 | 13.5 | 15 | 15 | Active | inactive | 12 | inactive | inactive | inactive | 14 | inhibition [4]: Active; GI50 [5]: 49.8 µg/mL (≈ 137 µM); GI50 [15]: 36.7 µg/mL (≈ 101 µM); inhibition [23]: Active; IC50 [25]: > 30 µM; CC50 [26]: 44.3 µg/mL (≈ 122 µM); IC50 [27]: > 30 µM; IC50 [28]: 30 µM |
| 9.97 | 12.4 | 9.87 | 11.1 | 8.52 | 9.62 | 10.8 | 11.7 | 10 | COC(=O)[C@]1(C)[C@@H](O)CC[C@]2(C)c3cc4c(cc3CC[C@@H]12)[nH]c1ccccc14 | 14 | 13.5 | 15 | 15 | Active | inactive | 12 | inactive | inactive | inactive | 14 | IC50 [25]: 8.54 µM; IC50 [27]: 12.8 µM; IC50 [28]: 7.63 µM |
